Where two headings read alike, the source gives them in different places.
Target: human NaV subtype, like NaV 1.7 (Homo sapiens, UniProt Q15858)
Experiment: E-VIPR optical membrane potential assay with electrical stimulation
Format: cell-based
[1] = active against one or more sodium channels, assay and NaV subtype not specified for Table 3, read-out: IC50 Binned Activity Data

Chain of human NaV subtype, like NaV 1.7 (Q15858 whole entry): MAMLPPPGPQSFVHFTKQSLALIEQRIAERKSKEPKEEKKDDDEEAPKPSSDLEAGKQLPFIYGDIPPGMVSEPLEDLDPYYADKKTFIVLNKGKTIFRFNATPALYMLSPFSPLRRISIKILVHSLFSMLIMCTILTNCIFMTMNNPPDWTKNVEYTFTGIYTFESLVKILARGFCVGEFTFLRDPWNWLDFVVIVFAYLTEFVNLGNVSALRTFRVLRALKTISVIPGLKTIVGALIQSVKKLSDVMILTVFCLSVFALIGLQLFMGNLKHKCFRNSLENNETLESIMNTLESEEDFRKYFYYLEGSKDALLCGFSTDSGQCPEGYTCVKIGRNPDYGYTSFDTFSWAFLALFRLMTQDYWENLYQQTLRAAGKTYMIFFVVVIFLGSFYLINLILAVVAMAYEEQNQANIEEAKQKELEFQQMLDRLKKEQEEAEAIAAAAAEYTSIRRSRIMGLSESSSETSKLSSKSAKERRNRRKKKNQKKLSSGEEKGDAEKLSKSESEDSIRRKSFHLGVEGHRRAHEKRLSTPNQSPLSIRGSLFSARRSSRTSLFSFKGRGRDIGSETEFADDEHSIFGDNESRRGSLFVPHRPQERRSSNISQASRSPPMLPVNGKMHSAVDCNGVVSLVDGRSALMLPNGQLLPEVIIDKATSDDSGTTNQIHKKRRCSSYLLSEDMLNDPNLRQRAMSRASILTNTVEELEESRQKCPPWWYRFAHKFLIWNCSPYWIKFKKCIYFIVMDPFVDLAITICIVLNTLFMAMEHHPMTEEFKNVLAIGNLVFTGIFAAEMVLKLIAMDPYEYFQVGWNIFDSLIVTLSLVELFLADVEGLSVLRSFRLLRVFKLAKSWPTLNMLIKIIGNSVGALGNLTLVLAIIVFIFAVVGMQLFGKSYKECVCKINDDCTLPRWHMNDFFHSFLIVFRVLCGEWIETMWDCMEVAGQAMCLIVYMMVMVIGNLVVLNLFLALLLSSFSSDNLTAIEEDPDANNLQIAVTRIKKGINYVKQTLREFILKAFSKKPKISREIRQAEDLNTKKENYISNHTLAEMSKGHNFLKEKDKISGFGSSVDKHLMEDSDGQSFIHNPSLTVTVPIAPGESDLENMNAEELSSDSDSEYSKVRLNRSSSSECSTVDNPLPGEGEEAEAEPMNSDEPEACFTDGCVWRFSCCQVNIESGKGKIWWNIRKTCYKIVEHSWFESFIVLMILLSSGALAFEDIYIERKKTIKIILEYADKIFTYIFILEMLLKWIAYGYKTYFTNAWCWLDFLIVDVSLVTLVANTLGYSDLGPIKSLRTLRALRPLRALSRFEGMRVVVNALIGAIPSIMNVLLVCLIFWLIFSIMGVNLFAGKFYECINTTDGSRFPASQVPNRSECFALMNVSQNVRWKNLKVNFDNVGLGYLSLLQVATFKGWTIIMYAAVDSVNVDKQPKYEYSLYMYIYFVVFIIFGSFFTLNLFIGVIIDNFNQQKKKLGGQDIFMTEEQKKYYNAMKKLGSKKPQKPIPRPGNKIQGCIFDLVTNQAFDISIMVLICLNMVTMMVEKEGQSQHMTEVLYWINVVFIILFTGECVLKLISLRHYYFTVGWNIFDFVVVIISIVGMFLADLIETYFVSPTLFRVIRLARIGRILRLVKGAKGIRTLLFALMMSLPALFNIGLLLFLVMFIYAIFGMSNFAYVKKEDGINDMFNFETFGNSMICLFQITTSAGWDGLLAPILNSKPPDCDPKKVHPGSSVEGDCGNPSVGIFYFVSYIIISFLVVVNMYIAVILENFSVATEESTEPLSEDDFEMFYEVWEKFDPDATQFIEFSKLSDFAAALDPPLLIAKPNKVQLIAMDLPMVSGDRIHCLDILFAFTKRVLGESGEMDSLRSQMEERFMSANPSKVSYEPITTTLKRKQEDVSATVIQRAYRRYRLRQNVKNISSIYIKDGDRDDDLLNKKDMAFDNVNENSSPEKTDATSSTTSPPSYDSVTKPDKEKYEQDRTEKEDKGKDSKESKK

SMILES | IC50 [1] [nM] | IC50 [nM]
CCC(=O)N1CC(c2ccccc2)OC2(CCN(C(=O)c3ccc(OC(C)C)c(C)c3)CC2)C1 (stereo not shown) [Compound 266] | 2000 to 5000 | –
COCC1CN(CC(=O)C(C)(C)C)CC2(CCN(C(=O)c3ccc(OC(C)C)c(C)c3)CC2)O1 (stereo not shown) [Compound 193] | < 2000 | –
CC(C)Oc1ccc(C(=O)N2CCC3(CC2)CN(CC(F)F)CC(c2ccccc2)O3)cc1F (stereo not shown) [Compound 77] | < 2000 | –
Cc1cc(C(=O)N2CCC3(CC2)CN(CC(F)F)CC(c2ccccn2)O3)ccc1S(=O)(=O)C(C)C (stereo not shown) [Compound 65] | > 5000 | –
Cc1cc(C2CN(CC(F)(F)F)CC3(CCN(C(=O)c4ccc(OC(C)C)c(F)c4)CC3)O2)n[nH]1 (stereo not shown) [Compound 87] | 2000 to 5000 | –
COCC1CN(c2cccnc2)CC2(CCN(C(=O)c3ccc(OC(C)C)c(C)c3)CC2)O1 (stereo not shown) [Compound 291] | < 2000 | –
CC#CCN1CC(CF)OC2(CCN(C(=O)c3ccc(OC(C)C)c(C)c3)CC2)C1 (stereo not shown) [Compound 139] | > 5000 | –
COCC1CN(C2CCCC2)CC2(CCN(C(=O)c3ccc(OC(C)C)c(C)c3)CC2)O1 (stereo not shown) [Compound 302] | < 2000 | –
COCC1CN(CC(=O)OC)CC2(CCN(C(=O)c3ccc(OC(C)C)c(C)c3)CC2)O1 (stereo not shown) [Compound 215] | 2000 to 5000 | –
COCC1CN(c2cccc(C(F)(F)F)c2)CC2(CCN(C(=O)c3ccc(OCC(C)(C)O)c(C)c3)CC2)O1 (stereo not shown) [Compound 225] | < 2000 | –
Cc1cc(C(=O)N2CCC3(CC2)CN(CC(C)(C)O)CC(c2ccccc2)O3)ccc1OC(C)C (stereo not shown) [Compound 24] | < 2000 | –
CCOc1cccc(C(=O)N2CCC3(CC2)CN(c2ncccn2)CC(COC)O3)c1 (stereo not shown) [Compound 72] | > 5000 | –
COCN1CC(c2cccc(OC)n2)OC2(CCN(C(=O)c3ccc(OC(C)C)c(C)c3)CC2)C1 (stereo not shown) [Compound 256] | < 2000 | –
O=C(c1cccc(Cl)c1)N1CCC2(CC1)CN(CC(F)(F)F)CC(c1ccccc1)O2 (stereo not shown) [Compound 155] | > 5000 | –
COCC1CN(c2ncc(F)cn2)CC2(CCN(C(=O)c3ccc(OC(C)C)c(C)c3)CC2)O1 (stereo not shown) [Compound 187] | < 2000 | –
Cc1cc(C(=O)N2CCC3(CC2)CN(c2ncccn2)CCO3)ccc1OC(C)C [Compound 6] | 2000 to 5000 | –
COCC1CN(c2ncccn2)CC2(CCN(C(=O)c3ccc(S(=O)(=O)C(F)F)cc3)CC2)O1 (stereo not shown) [Compound 8] | 2000 to 5000 | –
Cc1cc(C(=O)N2CCC3(CC2)CN(CC(F)F)CC(c2ccccn2)O3)ccc1OCCCO (stereo not shown) [Compound 305] | 2000 to 5000 | –
CC#CCN1CC(CC)OC2(CCN(C(=O)c3ccc(OC(C)C)c(Cl)c3)CC2)C1 (stereo not shown) [Compound 52] | < 2000 | –
CC#CCN1CC(CC)OC2(CCN(C(=O)c3ccc(OCC)c(C)c3)CC2)C1 (stereo not shown) [Compound 242] | 2000 to 5000 | –
Cc1cnc(C2CN(CC(F)(F)F)CC3(CCN(C(=O)c4ccc(OC(C)C)c(C)c4)CC3)O2)o1 (stereo not shown) [Compound 309] | < 2000 | –
CC(C)Oc1ccc(C(=O)N2CCC3(CC2)CN(CC(F)(F)F)CC(c2ccccc2)O3)c(F)c1 (stereo not shown) [Compound 135] | < 2000 | –
O=C(c1ccc(C(F)(F)F)cn1)N1CCC2(CC1)CN(CC(F)F)CC(c1ccccc1)O2 (stereo not shown) [Compound 290] | > 5000 | –
Cc1cc(C(=O)N2CCC3(CC2)CN(C(=O)C(C)C)CC(c2ccccc2)O3)ccc1OC(C)C (stereo not shown) [Compound 289] | 2000 to 5000 | –
CC#CCN1CC(CC)OC2(CCN(C(=O)c3ccc(OC(C)C)c(F)c3)CC2)C1 (stereo not shown) [Compound 239] | > 5000 | –
O=C(c1cccc(F)c1OC(F)F)N1CCC2(CC1)CN(CC(F)(F)F)CC(c1ccccc1)O2 (stereo not shown) [Compound 299] | > 5000 | –

SMILES | IC50 [1] [nM] | IC50 [nM]
CCC1CN(CC2CC2)CC2(CCN(C(=O)c3ccc(OC(C)C)c(C)c3)CC2)O1 (stereo not shown) [Compound 46] | < 2000 | –
CCC1CN(c2ccccn2)CC2(CCN(C(=O)c3ccc(C4(O)CCCCC4)cc3)CC2)O1 (stereo not shown) [Compound 54] | < 2000 | –
CC#CCN1CC2(CCN(C(=O)c3ccc(OC(C)C)c(C)c3)CC2)OCC1(C)C [Compound 185] | > 5000 | –
CC(C)(O)COc1ccc(C(=O)N2CCC3(CC2)CN(CC(F)(F)F)CC(c2ccccc2)O3)cc1 (stereo not shown) [Compound 273] | 2000 to 5000 | –
Cc1cc(C(=O)N2CCC3(CC2)CN(CC(F)(F)F)CC(c2ccccc2)O3)ccc1OCCO (stereo not shown) [Compound 199] | 2000 to 5000 | –
CC(C)Oc1ccc(C(=O)N2CCC3(CC2)CN(CC(F)F)CC(c2cc[nH]n2)O3)cc1F (stereo not shown) [Compound 226] | 2000 to 5000 | –
CCC1CN(CC(=O)C(C)(C)C)CC2(CCN(C(=O)c3ccc(OC(C)C)c(C)c3)CC2)O1 (stereo not shown) [Compound 262] | < 2000 | –
Cc1cc(C(=O)N2CCC3(CC2)CN(Cc2ccccc2)CC(CCO)O3)ccc1OC(C)C (stereo not shown) [Compound 2] | > 5000 | –
COCC1CN(C2CCC[C@@H](C)C2)CC2(CCN(C(=O)c3ccc(OC(C)C)c(C)c3)CC2)O1 (stereo partly shown) [Compound 232] | < 2000 | –
CC(C)(C)S(=O)(=O)c1ccc(C(=O)N2CCC3(CC2)CN(CC(F)F)CC(c2ccc(F)cc2)O3)cc1 (stereo not shown) [Compound 269] | 2000 to 5000 | –
COc1cc(C(=O)N2CCC3(CC2)CN(CC(F)F)CC(c2ccccc2)O3)ccc1OC(C)C (stereo not shown) [Compound 219] | < 2000 | –
COc1cc(C(=O)N2CCC3(CC2)CN(CC(F)F)CC(c2ccc(F)cc2)O3)ccc1OC(C)(C)C (stereo not shown) [Compound 247] | 2000 to 5000 | –
CCC1CN(CC)CC2(CCN(C(=O)c3ccc(OC(C)C)c(C)c3)CC2)O1 (stereo not shown) [Compound 34] | > 5000 | –
COCC1CN(c2ncccn2)CC2(CCN(C(=O)c3ccc(C(C)(C)C)c(OC)c3)CC2)O1 (stereo not shown) [Compound 191] | – | < 2000
CCC1COC2(CCN(C(=O)c3ccc(OC(C)C)c(C)c3)CC2)CN1CC (stereo not shown) [Compound 40] | > 5000 | –
Cc1cc(C(=O)N2CCC3(CC2)CN(CC(F)F)CC(c2nccn2C)O3)ccc1OC(C)C (stereo not shown) [Compound 35] | > 5000 | –
CCC1CN(c2ncccn2)CC2(CCN(C(=O)c3ccc(C4(O)CCCCC4)cc3)CC2)O1 (stereo not shown) [Compound 67] | < 2000 | –
Cc1cc(C(=O)N2CCC3(CC2)CN(CC(F)(F)F)CC(c2ccccc2)O3)ccc1OCCCO (stereo not shown) [Compound 117] | < 2000 | –
CC#CCN1CC(CC)OC2(CCN(C(=O)c3ccc(OC(C)C)c(C)n3)CC2)C1 (stereo not shown) [Compound 277] | 2000 to 5000 | –
CCN1CC2(CCN(C(=O)c3ccc(OC(C)C)c(OC)c3)CC2)OCC1c1ccccc1 (stereo not shown) [Compound 43] | 2000 to 5000 | –
CC(C)Oc1ccc(C(=O)N2CCC3(CC2)CN(CC(F)(F)F)CC(c2ccccc2)O3)cc1F (stereo not shown) [Compound 94] | < 2000 | –
CCC1CN(c2ccccn2)CC2(CCN(C(=O)c3ccc(OC(C)C)c(C)c3)CC2)O1 (stereo not shown) [Compound 295] | < 2000 | –
COCC1CN(Cc2c(F)cccc2F)CC2(CCN(C(=O)c3ccc(OC(C)C)c(C)c3)CC2)O1 (stereo not shown) [Compound 66] | < 2000 | –
CCC#CCN1CC(COC)OC2(CCN(C(=O)c3ccc(OC(C)C)c(C)c3)CC2)C1 (stereo not shown) [Compound 89] | < 2000 | –
CC(C)Oc1ccc(C(=O)N2CCC3(CC2)CN(CC(F)F)CC(c2ccnn2C)O3)cc1F (stereo not shown) [Compound 84] | > 5000 | –
COCC1CN(CCSC)CC2(CCN(C(=O)c3ccc(OC(C)C)c(C)c3)CC2)O1 (stereo not shown) [Compound 184] | < 2000 | –

SMILES | IC50 [1] [nM] | IC50 [nM]
Cc1cc(C(=O)N2CCC3(CC2)CN(CC(F)F)CC(c2ccccn2)O3)ccc1OC(C)C (stereo not shown) [Compound 33] | < 2000 | –
CCn1ccc(C2CN(CC(F)F)CC3(CCN(C(=O)c4ccc(OC(C)C)c(C)c4)CC3)O2)n1 (stereo not shown) [Compound 229] | 2000 to 5000 | –
Cc1cc(C(=O)N2CCC3(CC2)CN(CC(F)(F)F)CC(Cn2cccn2)O3)ccc1OC(C)C (stereo not shown) [Compound 181] | > 5000 | –
COCC1CN(c2ncccn2)CC2(CCN(C(=O)c3ccc(OC)c(C(F)(F)F)c3)CC2)O1 (stereo not shown) [Compound 284] | < 2000 | –
Cc1cc(C(=O)N2CCC3(CC2)CN(CC(F)F)CC(c2ccc(F)cc2)O3)ccc1S(C)(=O)=O (stereo not shown) [Compound 202] | > 5000 | –
COc1ccc(C(=O)N2CCC3(CC2)CN(CCC(C)C)C(=O)C(c2ccccc2)O3)cc1C(F)(F)F (stereo not shown) [Compound 186] | < 2000 | –
CC(C)(C)S(=O)(=O)c1ccc(C(=O)N2CCC3(CC2)CN(CC(F)(F)F)CC(c2ccccc2)O3)cc1 (stereo not shown) [Compound 12] | < 2000 | –
CC(C)Oc1ccc(C(=O)N2CCC3(CC2)CN(CC(F)(F)F)CC(c2cc[nH]n2)O3)cc1Cl (stereo not shown) [Compound 110] | < 2000 | –
Cc1cccc(C2CN(CC(F)F)CC3(CCN(C(=O)c4ccc(OC(C)C)c(F)c4)CC3)O2)n1 (stereo not shown) [Compound 195] | < 2000 | –
Cc1cc(C(=O)N2CCC3(CC2)CN(C)CC(c2ccccc2)O3)ccc1OC(C)C (stereo not shown) [Compound 7] | < 2000 | –
CCn1nccc1C1CN(CC(F)F)CC2(CCN(C(=O)c3ccc(OC(C)C)c(C)c3)CC2)O1 (stereo not shown) [Compound 20] | < 2000 | –
Cc1cc(C(=O)N2CCC3(CC2)CN(CC(F)(F)F)CC(c2ccccc2)O3)ccc1S(=O)(=O)C(C)C (stereo not shown) [Compound 200] | < 2000 | –
COCC1CN(c2ncccn2)CC2(CCN(C(=O)c3ccc(OC(C)C)c(C)c3)CC2)O1 (stereo not shown) [Compound 120] | < 2000 | –
Cc1nc(C(=O)N2CCC3(CC2)CN(CC(F)(F)F)CC(c2ccccc2)O3)ccc1OC(C)C (stereo not shown) [Compound 42] | < 2000 | –
CC(C)(O)c1ccc(C(=O)N2CCC3(CC2)CN(CC(F)F)CC(c2ccc(F)cc2)O3)cc1F (stereo not shown) [Compound 307] | < 2000 | –
CCC1CN(c2ccccn2)CC2(CCN(C(=O)c3ccc(C4(O)CCCC4)cc3)CC2)O1 (stereo not shown) [Compound 288] | < 2000 | –
COCC1CN(CCC(C)C)CC2(CCN(C(=O)c3ccc(OC(C)C)c(C)c3)CC2)O1 (stereo not shown) [Compound 147] | < 2000 | –
CCN1CC2(CCN(C(=O)c3ccc(OC(C)C)c(C)c3)CC2)OCC1c1ccccc1 (stereo not shown) [Compound 10] | < 2000 | –
CCC1CN(c2ncccn2)CC2(CCN(C(=O)c3ccc(C4=CCCC4)c(F)c3)CC2)O1 (stereo not shown) [Compound 130] | > 5000 | –
COCC1CN(C2CCN(C(C)=O)CC2)CC2(CCN(C(=O)c3ccc(OC(C)C)c(C)c3)CC2)O1 (stereo not shown) [Compound 121] | > 5000 | –
COc1cc(C(=O)N2CCC3(CC2)CN(CC(F)(F)F)CC(c2ccccc2)O3)ccc1S(C)(=O)=O (stereo not shown) [Compound 172] | > 5000 | –
CCOCC1CN(CC)CC2(CCN(C(=O)c3ccc(OC(C)C)c(C)c3)CC2)O1 (stereo not shown) [Compound 272] | > 5000 | –
COCC1CN(c2ncccn2)CC2(CCN(C(=O)c3ccc(OC(C)C)c(C)n3)CC2)O1 (stereo not shown) [Compound 282] | < 2000 | –
COCC1CN(Cc2nccs2)CC2(CCN(C(=O)c3ccc(OC(C)C)c(C)c3)CC2)O1 (stereo not shown) [Compound 252] | 2000 to 5000 | –

Reference: US9181273B2, “Morpholine-spirocyclic piperidine amides as modulators of ion channels” (Vertex Pharmaceuticals Incorporated, priority 2011, dated 2015)
